Laboratory results reported in article PMC6812009, “Covalent Aurora A regulation by the metabolic integrator coenzyme A” (Redox Biology, 2019).

Legend:
Assay in all cases: Kinase profiling screen (radioactive filter-binding assay)
Assay type in all cases: biochemical
TAK1 = target: T1, TAK1 (Homo sapiens, UniProt O43318); conditions: 100 μM compound, 5 μM ATP; read-out: Kinase activity, % of activity in the absence of inhibitor
T1 sequence (O43318 1-303 limits assumed): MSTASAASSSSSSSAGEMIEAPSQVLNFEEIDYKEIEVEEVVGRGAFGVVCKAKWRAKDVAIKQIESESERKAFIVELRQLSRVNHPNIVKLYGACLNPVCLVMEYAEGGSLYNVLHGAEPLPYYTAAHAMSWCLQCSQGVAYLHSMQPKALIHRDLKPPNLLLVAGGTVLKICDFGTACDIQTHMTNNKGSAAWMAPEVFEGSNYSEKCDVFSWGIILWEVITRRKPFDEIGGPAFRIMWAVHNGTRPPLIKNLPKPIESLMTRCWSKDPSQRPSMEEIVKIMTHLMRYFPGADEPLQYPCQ
Description: (§1) Profiling of 117 protein kinases with CoA, dpCoA and ADP was carried out at the International Centre for Protein Kinase Profiling at the University of Dundee. Each compound was tested in vitro, in duplicate, at 100 μM final concentration using recombinant kinases, model substrates and optimal concentrations of ATP. Bacterially expressed full-length His-Aurora A was used to determine the IC50 value for CoA (in the presence or absence of DTT), dpCoA, ADP and desulfo-CoA. The assay was performed in the presence of 5 μM competing ATP. To examine whether the inhibitory effect of CoA on Aurora A is modulated by TPX2, IC50 values for CoA were also generated in the presence and absence of 1 μg TPX2 (residues 1–43) fragment.

MARK3 = MARK3 (Homo sapiens, UniProt P27448); conditions: 100 μM compound, 5 μM ATP; read-out: Kinase activity, % of activity in the absence of inhibitor
Chain of MARK3 (P27448 whole entry): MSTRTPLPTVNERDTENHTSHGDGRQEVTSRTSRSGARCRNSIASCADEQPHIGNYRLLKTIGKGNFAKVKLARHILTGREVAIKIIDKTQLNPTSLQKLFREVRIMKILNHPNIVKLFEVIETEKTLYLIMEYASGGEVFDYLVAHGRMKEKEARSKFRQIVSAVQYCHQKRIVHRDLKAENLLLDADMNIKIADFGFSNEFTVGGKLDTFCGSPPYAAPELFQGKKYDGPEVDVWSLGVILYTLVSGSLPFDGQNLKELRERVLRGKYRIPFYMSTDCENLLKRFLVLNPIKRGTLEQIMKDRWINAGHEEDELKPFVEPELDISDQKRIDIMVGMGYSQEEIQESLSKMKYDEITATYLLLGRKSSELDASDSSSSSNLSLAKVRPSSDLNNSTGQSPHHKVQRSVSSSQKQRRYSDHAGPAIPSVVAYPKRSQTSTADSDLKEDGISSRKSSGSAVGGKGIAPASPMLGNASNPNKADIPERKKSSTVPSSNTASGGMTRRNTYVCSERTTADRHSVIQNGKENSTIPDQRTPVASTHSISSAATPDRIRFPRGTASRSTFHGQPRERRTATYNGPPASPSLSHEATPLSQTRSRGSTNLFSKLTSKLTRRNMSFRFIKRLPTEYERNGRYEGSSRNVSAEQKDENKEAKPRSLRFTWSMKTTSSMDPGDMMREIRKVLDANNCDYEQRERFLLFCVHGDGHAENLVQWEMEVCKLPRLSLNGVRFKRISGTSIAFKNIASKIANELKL
Description: as §1

PAK6 = PAK6 (Homo sapiens, UniProt Q9NQU5); conditions: 100 μM compound, 20 μM ATP; read-out: Kinase activity, % of activity in the absence of inhibitor
Chain of PAK6 (Q9NQU5 whole entry): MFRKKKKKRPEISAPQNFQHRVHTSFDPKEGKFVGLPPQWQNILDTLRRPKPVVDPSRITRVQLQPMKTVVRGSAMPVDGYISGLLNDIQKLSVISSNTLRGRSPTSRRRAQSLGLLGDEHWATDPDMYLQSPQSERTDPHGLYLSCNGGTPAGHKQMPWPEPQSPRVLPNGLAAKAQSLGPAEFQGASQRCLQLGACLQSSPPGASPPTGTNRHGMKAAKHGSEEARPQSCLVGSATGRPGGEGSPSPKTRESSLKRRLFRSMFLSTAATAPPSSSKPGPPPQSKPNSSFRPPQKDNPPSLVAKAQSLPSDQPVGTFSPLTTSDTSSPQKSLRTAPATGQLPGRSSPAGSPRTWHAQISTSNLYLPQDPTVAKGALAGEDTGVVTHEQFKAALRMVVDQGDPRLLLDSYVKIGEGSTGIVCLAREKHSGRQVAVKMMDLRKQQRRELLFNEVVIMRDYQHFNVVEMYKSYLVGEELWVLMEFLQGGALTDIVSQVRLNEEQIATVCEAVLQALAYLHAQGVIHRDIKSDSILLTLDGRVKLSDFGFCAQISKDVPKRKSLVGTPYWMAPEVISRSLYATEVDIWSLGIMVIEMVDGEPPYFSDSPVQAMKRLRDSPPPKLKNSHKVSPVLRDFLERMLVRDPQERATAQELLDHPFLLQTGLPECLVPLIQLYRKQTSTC
Description: as §1

PDK1 = target: T2, PDK1 (Homo sapiens, UniProt O15530); conditions: 100 μM compound, 20 μM ATP; read-out: Kinase activity, % of activity in the absence of inhibitor
T2 sequence (O15530 1-556): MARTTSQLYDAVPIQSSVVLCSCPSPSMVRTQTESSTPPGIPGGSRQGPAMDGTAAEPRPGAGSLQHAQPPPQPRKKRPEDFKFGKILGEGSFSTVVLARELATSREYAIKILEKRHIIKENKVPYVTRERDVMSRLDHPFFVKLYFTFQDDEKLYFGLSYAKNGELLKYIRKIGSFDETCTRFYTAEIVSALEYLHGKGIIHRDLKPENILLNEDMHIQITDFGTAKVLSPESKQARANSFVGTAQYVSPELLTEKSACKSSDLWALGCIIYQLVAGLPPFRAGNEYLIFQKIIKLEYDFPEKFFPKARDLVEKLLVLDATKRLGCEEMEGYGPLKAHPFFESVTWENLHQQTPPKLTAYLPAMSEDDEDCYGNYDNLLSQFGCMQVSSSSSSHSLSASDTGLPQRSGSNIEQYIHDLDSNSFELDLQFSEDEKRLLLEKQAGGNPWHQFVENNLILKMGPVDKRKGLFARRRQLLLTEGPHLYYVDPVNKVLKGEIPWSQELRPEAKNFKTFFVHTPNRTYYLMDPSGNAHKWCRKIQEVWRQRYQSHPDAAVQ
Description: as §1

EPH-A2 = EPH-A2 (Homo sapiens, UniProt P29317); conditions: 100 μM compound, 50 μM ATP; read-out: Kinase activity, % of activity in the absence of inhibitor
Chain of EPH-A2 (P29317 24-976): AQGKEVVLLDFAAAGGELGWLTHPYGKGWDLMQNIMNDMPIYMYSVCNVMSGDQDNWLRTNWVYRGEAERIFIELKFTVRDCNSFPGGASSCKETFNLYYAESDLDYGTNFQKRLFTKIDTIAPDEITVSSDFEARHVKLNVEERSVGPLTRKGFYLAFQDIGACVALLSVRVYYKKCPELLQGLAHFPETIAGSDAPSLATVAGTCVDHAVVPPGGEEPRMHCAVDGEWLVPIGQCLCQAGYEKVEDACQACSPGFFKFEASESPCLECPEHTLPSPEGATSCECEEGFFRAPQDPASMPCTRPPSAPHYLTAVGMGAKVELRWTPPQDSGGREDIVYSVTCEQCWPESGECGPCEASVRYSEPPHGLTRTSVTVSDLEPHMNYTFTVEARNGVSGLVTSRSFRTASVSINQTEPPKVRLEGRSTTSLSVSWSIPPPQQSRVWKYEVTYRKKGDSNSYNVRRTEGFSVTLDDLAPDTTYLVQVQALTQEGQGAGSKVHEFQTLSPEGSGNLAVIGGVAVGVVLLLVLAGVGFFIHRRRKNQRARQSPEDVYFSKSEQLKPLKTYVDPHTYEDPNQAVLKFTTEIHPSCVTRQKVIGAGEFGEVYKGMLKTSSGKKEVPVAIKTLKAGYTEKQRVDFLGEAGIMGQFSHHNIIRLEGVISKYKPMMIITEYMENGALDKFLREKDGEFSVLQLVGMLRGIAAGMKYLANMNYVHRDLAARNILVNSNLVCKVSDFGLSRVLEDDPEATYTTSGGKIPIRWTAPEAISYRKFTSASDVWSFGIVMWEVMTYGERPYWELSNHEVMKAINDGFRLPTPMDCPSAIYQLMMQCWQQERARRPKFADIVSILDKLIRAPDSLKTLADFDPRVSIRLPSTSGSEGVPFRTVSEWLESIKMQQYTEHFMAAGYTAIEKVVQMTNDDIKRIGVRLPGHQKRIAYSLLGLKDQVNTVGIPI
Description: as §1

BRSK2 = target: T3, BRSK2 (Homo sapiens, UniProt Q8IWQ3); conditions: 100 μM compound, 50 μM ATP; read-out: Kinase activity, % of activity in the absence of inhibitor
T3 sequence (Q8IWQ3 1-736): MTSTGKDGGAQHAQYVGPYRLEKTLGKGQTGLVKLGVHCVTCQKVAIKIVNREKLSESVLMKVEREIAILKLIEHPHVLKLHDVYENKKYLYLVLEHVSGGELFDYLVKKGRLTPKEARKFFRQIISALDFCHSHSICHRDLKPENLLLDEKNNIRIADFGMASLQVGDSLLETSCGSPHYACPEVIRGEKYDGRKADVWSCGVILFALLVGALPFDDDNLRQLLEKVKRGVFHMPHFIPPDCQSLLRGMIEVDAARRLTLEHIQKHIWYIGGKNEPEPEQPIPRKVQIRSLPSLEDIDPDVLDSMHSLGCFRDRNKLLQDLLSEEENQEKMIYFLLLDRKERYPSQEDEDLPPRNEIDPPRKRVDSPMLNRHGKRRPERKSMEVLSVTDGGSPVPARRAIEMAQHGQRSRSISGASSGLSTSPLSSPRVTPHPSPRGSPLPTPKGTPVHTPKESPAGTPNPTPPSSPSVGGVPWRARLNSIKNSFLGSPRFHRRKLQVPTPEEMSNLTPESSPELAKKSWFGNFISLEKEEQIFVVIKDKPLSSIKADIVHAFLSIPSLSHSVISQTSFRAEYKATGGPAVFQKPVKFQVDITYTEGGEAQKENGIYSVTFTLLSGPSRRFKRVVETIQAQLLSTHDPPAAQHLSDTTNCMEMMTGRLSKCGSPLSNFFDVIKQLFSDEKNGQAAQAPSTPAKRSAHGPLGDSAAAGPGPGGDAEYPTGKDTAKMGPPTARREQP
Description: as §1

CHK1 = target: T4, CHK1 (Homo sapiens, UniProt O14757); conditions: 100 μM compound, 20 μM ATP; read-out: Kinase activity, % of activity in the absence of inhibitor
T4 sequence (O14757 1-476): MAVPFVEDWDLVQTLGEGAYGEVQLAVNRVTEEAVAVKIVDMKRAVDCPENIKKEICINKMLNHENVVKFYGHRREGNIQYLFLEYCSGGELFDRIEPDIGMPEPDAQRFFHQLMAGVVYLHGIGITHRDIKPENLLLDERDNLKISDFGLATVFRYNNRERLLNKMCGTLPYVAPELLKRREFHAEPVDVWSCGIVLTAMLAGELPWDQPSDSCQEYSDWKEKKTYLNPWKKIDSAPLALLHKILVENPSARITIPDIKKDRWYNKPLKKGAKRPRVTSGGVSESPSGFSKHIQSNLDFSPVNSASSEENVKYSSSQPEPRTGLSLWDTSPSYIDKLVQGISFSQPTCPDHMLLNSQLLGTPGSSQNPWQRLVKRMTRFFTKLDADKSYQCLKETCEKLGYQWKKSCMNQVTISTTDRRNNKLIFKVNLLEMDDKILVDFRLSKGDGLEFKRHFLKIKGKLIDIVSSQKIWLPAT
Description: as §1

Row | Compound | activity at 100 µM (TAK1) [%] | activity at 100 µM (MARK3) [%] | activity at 100 µM (PAK6) [%] | activity at 100 µM (PDK1) [%] | activity at 100 µM (EPH-A2) [%] | activity at 100 µM (BRSK2) [%] | activity at 100 µM (CHK1) [%]
1 | Nc1ncnc2c1ncn2C1OC(COP(=O)(O)OP(=O)(O)O)C(O)C1O (stereo not drawn) [ADP] | 15.8 | 14.8 | 78.4 | 23.3 | 45 | 52.4 | 47.6
2 | CC(C)(COP(=O)(O)OP(=O)(O)OCC1OC(n2cnc3c(N)ncnc32)C(O)C1O)C(O)C(=O)NCCC(=O)NCCS (stereo not drawn) [dpCoA, dephospho-CoA] | 79.6 | 46.2 | 101 | 91.2 | 99.2 | 88.8 | 78.8
3 | CC(C)(COP(=O)(O)OP(=O)(O)OC[C@H]1O[C@@H](n2cnc3c(N)ncnc32)[C@H](O)[C@@H]1OP(=O)(O)O)[C@@H](O)C(=O)NCCC(=O)NCCS [CoA, Coenzyme A] | 115 | 88.9 | 98.4 | 113 | 102 | 115 | 123
